# Source: patent US5480905A, “Benzodioxane derivatives” (Chugai Seiyaku Kabushiki Kaisha, priority 1991, dated 1996)
# “Also recorded” adds a separate entry of the source.
# Columns and labels:
# [1] = test system: intracerebral serotonin 2 receptor; conditions: continuous administration; cited from earlier work
# [2] = in vivo; cited from earlier work
# serotonin 1A receptor = biological target: T1, serotonin 1A receptor (Rattus norvegicus, UniProt P19327); assay: Serotonin 1A receptor binding experiment (3H-8-OH-DPAT); conditions: rat cortex and hippocampal tissue; 0.5 nM 3H-8-OH-DPAT; IC50 in M; read-out: -logIC50 5-HT1A (converted)
# T1 construct: the cortex and hippocampal tissue were extracted from the brain; from tissue; host or cells: brain cortex and hippocampus of 7-week-old male S.D. rats, washed membrane homogenate
# T1 sequence (P19327 1-422): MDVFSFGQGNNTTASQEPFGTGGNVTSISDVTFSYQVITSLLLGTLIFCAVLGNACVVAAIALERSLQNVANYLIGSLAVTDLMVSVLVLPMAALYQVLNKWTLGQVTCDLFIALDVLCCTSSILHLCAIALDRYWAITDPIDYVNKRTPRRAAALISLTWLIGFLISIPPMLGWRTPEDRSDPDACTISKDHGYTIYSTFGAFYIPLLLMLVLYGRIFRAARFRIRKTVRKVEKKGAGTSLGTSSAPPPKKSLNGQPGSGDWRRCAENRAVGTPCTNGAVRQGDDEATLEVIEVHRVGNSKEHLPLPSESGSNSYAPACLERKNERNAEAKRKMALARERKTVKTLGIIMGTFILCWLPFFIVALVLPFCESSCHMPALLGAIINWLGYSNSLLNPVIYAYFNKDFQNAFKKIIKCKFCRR
# Method: (§1) Affinity for intracerebral serotonin 1A and serotonin 2 receptor was checked in accordance with the method of Hall et al. (J. Neurochem., 44, 1685-1695, 1985) and the method of Leysen et al. (Mol. Pharmacol., 21, 301-314, 1982).
# (§2) Stated more specifically, the cortex and hippocampal tissue were extracted from the brain of 7-wk old S.D. line male rats, mixed with 20 volumes of Tris-HCl buffer (50 mM, pH 7.7) and homogenized with a Teflon homogenizer. Thereafter, the homogenate was centrifuged at 39800×g for 20 min and the supernatant was discarded. Forty volumes of a buffer were added to the precipitate and the mixture was homogenized with a Polytron homogenizer, with the homogenate being centrifuged under the same condition as set forth above. The same procedure was repeated two more times and the final precipitate was homogenized with 40 volumes of a buffer; thereafter, the homogenate was stored at least overnight at -80° C. On the day when binding experiments were to be conducted, the homogenate was thawed at room temperature and incubated at 37° C. for 20 min to remove the endogenous serotonin.
# (§3) Thereafter, centrifugation was conducted at 39800×g for 20 min and 40 volumes of a buffer were added to the precipitate, followed by homogenization. This procedure was repeated three times; to the final precipitate, a buffer was added in 65 volumes for the case of serotonin 1A receptor and in 80 volumes for the case of serotonin 2 receptor and the mixture was homogenized in preparation for the binding experiments that are described below. All procedures of experimentation except storage in a frozen state and thawing at room temperature were conducted at 4° C. or below.
# A reaction solution containing 0.5 nM (final concentration) of 3H-8-hydroxy-2-(di-n-propylamino)tetralin (8-OH-DPAT), […] and 500 μl of brain homogenate in 1.0 ml (final volume) of a buffer was incubated at 25° C. for 30 min. Thereafter, the reaction solution was filtered by rapid passage through a glass filler. The filter was washed rapidly with an ice-cooled buffer (3 ml) three times, put into a scintillation vial together with a scintillation cocktail, and left to stand overnight at 4° C. On the next day, the vial was agitated well and measurements were conducted with a scintillation counter. To determine the amount of specific binding, the amount of binding in the presence of excess unlabeled serotonin (10 μM) was subtracted from the total amount of binding. As an index for the affinity of a test compound for either receptor, the concentration at which the specific binding of ^3 H-DPAT was inhibited by 50% (IC50, M) was determined using computer software EBDA/LIGAND (Biosoft).
# S.D. line male rats [3] = assay: Antidepressant effect, compelled swim test (Porsolt), time over which rats remain motionless; assay type: in vivo, rat; conditions: peroral 20 mg/kg; for inhibition in vivo at 20 mg/kg: Rattus norvegicus, po, 0.5 h, 30 min before swim, read-out: Antidepressant effect, Efficacy
# Method: An antidepression test was conducted in accordance with the method of Porsolt et al. (Europ. J. Pharmacol., 47, 379-391, 1978). Stated more specifically, 7-wk old S.D. line male rats were placed in a glass cylinder (18 cm^.phi. ×40 cm^H) for 15 min. The cylinder was filled with water (25° C.) to a depth of 15 cm. Thereafter, the rats were placed in a hot environment (32° C.) for 15 min before they were returned to the cage. Twenty-four hours later, the rats were compelled again to swim in the same cylinder for 5 min and the total time over which the rats remained motionless was measured. A test drug was administered perorally to each animal 30 min before it was compelled to swim for 5 min. Antidepressant agents are known to be capable of specifically reducing the time over which the rats would remain motionless (Psyehopharmaeol., 83, 1-16, 1984, and ibid., 94, 147-160, 1988). The antidepressant effect was calculated by the following formula: [formula]
# (§4) The procedure of Test Examples 2 and 3 were repeated except that test compounds were administered perorally in a dose of 10 mg/kg.
# (§5) The procedures of Test Example 2 and 3 were repeated, except that test compounds were administered perorally in a dose of 20 mg/kg to check the longevity of their antianxiety and antidepressant effects for 0.5, 2 and 4 h.
# serotonin 2 receptor = biological target: T2, serotonin 2 receptor (Rattus norvegicus, UniProt P14842); assay: Serotonin 2 receptor binding experiment (3H-ketancerine); conditions: rat cortex and hippocampal tissue; 0.5 nM 3H-ketancerine; IC50 in M; read-out: -logIC50 5-HT2 (converted)
# T2 construct: the cortex and hippocampal tissue were extracted from the brain; from tissue; host or cells: brain cortex and hippocampus of 7-week-old male S.D. rats, washed membrane homogenate
# Method: as §1, §2, §3
# A reaction solution containing 0.5 nM (final concentration) of ^3 H-ketancerine and 500 μl of brain homogenate in 1.0 ml (final volume) of a buffer was incubated at 30° C. for 30 min. Subsequent procedures were the same as in the serotonin 1A receptor binding experiment and IC50 (M) was determined accordingly. To determine the amount of specific binding, the amount of binding in the presence of excess unlabelled methysergide ([…]) was subtracted from the total amount of binding.
# S.D. line male rats [4] = assay: Sedative action, amount of spontaneous movement (Animex); assay type: in vivo, rat; conditions: for Amount of Spontaneous Movement: control 405.2 ± 47.7
# Method: Seven-week old male S.D. line rats were administered a test drug perorally and after the passage of 30 min, the amount of spontaneous movement of the rats was measured for 10 min by means of Animex.
# S.D. line male rats [5] = assay: Antianxiety effect, water drinking under punishment (Vogel); assay type: in vivo, rat; parameters: Antianxiety effect / Antianxiety effect, longevity: unit not given here; conditions: peroral 20 mg/kg; for change in vivo at 20 mg/kg: Rattus norvegicus, po, read-out: Antianxiety effect, Efficacy
# Method: Antianxiety test was conducted in accordance with a method adapted from the method of Vogel et al. (Psychopharmacol., 21, 1-7, 1971). Stated more specifically, S.D. line male rats weighing 250-300 g were entirely kept from water for 24 h and then placed in a concrete experimental box. […] The bottom of the box was made of a stainless steel grid, from which electric shock (0.2 mA, 0.5 sec) could be applied to the limbs of rats. The test schedule was as follows: first, the rats were acclimatized to the experimental box and trained for drinking water; this was done for 3 min without electric shock. The quantity of water drunk by the rats was then measured (under non-punishment). Then, the rats were kept from drinking water for 24 h. Thereafter, the quantity of water drunk by each rat was measured (before administration of test compound) under such conditions that an electric shock was applied each time a rat drank one water drop (under punishment).Thirty minutes later, a test drug was administered perorally and after an additional 20 min, the quantity of water drunk by each rat was again measured under punishment (after administration of test compound). The quantity of water drunk by rats will decrease under punishment but it is known that the initial level can be restored by administering an antianxiety agent.
# The antianxiety effect of a test compound was calculated by the following formula: [formula]
# as §4, §5
# [6] = test system: apomorphine induced stereotypic behavior; assay: Antidopamine action, apomorphine induced stereotypic behavior; assay type: in vivo, rat; conditions: for Apomorphine Induced Stereotypic Behavior, sum of scores: maximum of 24
# Method: Seven-week old male S.D. line rats were administered a test drug perorally and after the passage of 30 min, the dopamine agonist apomorphine was injected subcutaneously in an amount of 0.5 mg/kg. For the subsequent 5-30 min period, the intensity of stereotypic behavior that was induced in the rats by apomorphine was measured six times at 5-min intervals by a scoring method and the sum of the scores was determined (for a maximum of 24).
# T2 sequence (P14842 whole entry): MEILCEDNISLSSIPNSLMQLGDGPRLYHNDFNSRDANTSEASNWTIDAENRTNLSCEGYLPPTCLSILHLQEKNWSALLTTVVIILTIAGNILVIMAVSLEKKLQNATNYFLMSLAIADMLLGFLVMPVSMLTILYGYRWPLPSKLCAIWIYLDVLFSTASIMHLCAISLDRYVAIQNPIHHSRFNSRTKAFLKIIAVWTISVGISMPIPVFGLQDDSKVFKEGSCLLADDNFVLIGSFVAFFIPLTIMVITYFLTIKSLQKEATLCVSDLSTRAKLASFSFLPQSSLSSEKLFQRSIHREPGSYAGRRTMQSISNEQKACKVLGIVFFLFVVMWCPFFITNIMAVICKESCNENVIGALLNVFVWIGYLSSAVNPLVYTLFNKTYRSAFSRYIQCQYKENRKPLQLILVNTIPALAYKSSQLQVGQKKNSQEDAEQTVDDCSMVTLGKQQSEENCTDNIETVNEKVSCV
SMILES,"Antianxiety/antidepressant action (words, background) [2]","Side effects (words, background) [2]",IC50 (serotonin 1A receptor),inhibition in vivo at 20 mg/kg (S.D. line male rats [3]),Antidepressant effect (S.D. line male rats [3]),IC50 (serotonin 2 receptor),change in vivo at 20 mg/kg (S.D. line male rats [5]),also measured
O=C1c2ccccc2S(=O)(=O)N1CCCCN1CCN(c2ncccn2)CC1 [Ipsapirone],only weak antidepressant and antianxiety effects; also recorded: both antianxiety and antidepressant effects,either lower ultromotivity (probably due to the dopamine antagonistic action) or serotonin syndrome,,,,,,"intracerebral serotonin 2 receptor (words, background) [1]: decrease in the intracerebral serotonin 2 receptor"
"O=C1CC2(CCCC2)CC(=O)N1CCNCC1COc2ccccc2O1 (centres unmarked) [MDL-73005, reference compound]",,,36.3 nM,28.3 ± 10.9%,extremely weak antidepressant effect,> 1000 nM,67.6 ± 5.5%,"Amount of Spontaneous Movement (S.D. line male rats [4]; 20 mg/kg peroral): 395.8 Counts/10 min; Amount of Spontaneous Movement (S.D. line male rats [4]; 40 mg/kg peroral): 331.5 Counts/10 min; Amount of Spontaneous Movement (S.D. line male rats [4]; 60 mg/kg peroral): 335.0 Counts/10 min; Sedative action / spontaneous movement (S.D. line male rats [4]; peroral 20-60 mg/kg): no appreciable sedative action; Antianxiety effect, longevity (S.D. line male rats [5]; 0.5 h after administration): 44.9; Antianxiety effect, longevity (S.D. line male rats [5]; 2.0 h after administration): 17.0; Antianxiety effect, longevity (S.D. line male rats [5]; 4.0 h after administration): 8.1"
CC1(C)CC(=O)N(CCCCN2CCN(c3ncccn3)CC2)C(=O)C1 [Gepirone],only weak antidepressant and antianxiety effects; also recorded: both antianxiety and antidepressant effects,either lower ultromotivity (probably due to the dopamine antagonistic action) or serotonin syndrome,,,,,,
"COc1cccc2c1OC(CNCCNC(=O)C13CC4CC(CC(C4)C1)C3)CO2 (centres unmarked) [Compound 5, N-{[2-(8-methoxy-1,4-benzodioxan-2ylmethyl)amino]ethyl}tricyclo[3,3,1,1^3'7]decane-1-carboxyamide]",,,0.347 nM,97.6 ± 0.9%,better antidepressant effects than WY-50324,10 nM,40.9 ± 7.3%,Antianxiety effect (S.D. line male rats [5]): almost comparable effects to WY-50324
O=C1CC2(CCCC2)CC(=O)N1CCCCN1CCN(c2ncccn2)CC1 [Buspirone],,,,-25.2 ± 3.9%,,,37.5 ± 4.7%,"Apomorphine Induced Stereotypic Behavior, sum of scores ([6]; 10 mg/kg peroral, control 14.4 ± 0.9): 10.3; Apomorphine Induced Stereotypic Behavior, sum of scores ([6]; 20 mg/kg peroral, control 14.4 ± 0.9 (Comp. 1: 16.0 ± 1.1)): 0.7; Apomorphine Induced Stereotypic Behavior, sum of scores ([6]; 40 mg/kg peroral, control 14.4 ± 0.9): 0.2; Antidopamine action ([6]; peroral, apomorphine 0.5 mg/kg s.c.): stereotypic behavior induced by apomorphine was intensely compelled"
